Tests used:
hPDE5 mutants [1] = target: hPDE5 mutants (Homo sapiens, UniProt O76074); experiment: GFP FACS analysis of hPDE5 mutant library clones in NIH3T3 cell pools; settings: for MFI 10 μM VDF / MFI DMSO: GFP, NIH3T3 cell pools; for MFI 10 μM VDF: 10 μM vardenafil 24 hr; for MFI 10 μM VDF / MFI DMSO / GFP FACS analysis (MFI): experiment 1; for MFI DMSO: no ligand (DMSO)
Description: (§1) These constructs were packaged into lentivirus, transduced into NIH3T3 cells and select stable cell pools were derived as described below. […] Lentiviral stocks were used for transduction of NIH3T3 cells and subsequent cell pool selection. The day before transduction, NIH3T3 cells (1.8×10^6) were seeded in a T-25 flask and allowed to reach 60-70% confluency (˜1 day). The growth medium in the T-25 flask was then replaced with 1 mL virus (quickly thawed in a 37° C. water bath) and 5 μg/mL polybrene. […] Transduction medium was removed the following day and replaced with 5 mL fresh medium. At 48 hr after transduction, the medium was replaced with media containing 1 μg/mL puromycin. This puromycin medium was replaced every 3-4 days until cell pools were established (˜2 weeks).
(§2) The mean fluorescence intensity (MFI) of GFP at 100 μM concentration treatment was set as 100% hPDE5 stabilization effect (HPE), while DMSO treatment was set as 0% effect (ZPE) of hPDE5 stabilization. The effect of the compound on hPDE5 stabilization was calculated based on the following formula: % PDE5 stabilization effect=(MFI-ZPE)/(HPE-ZPE)×100.
(§3) Plots of the % effect versus concentration were generated with Graphpad Prism 5 and EC50 values were calculated using a four-parameter nonlinear regression model.
(§4) Select PDE5 clones from both experiment 1 and experiment 2 were directly compared. […] The stabilization ratio was calculated as the fold change in GFP intensity in ligand treated samples compared to treatment with DMSO (i.e. in the absence of ligand) with the same construct.

hPDE5 mutants [2] = experiment: as above; settings: experiment 1
Description: as §1, §2, §3, §4

Substance	MFI 10 μM VDF (hPDE5 mutants [1])	MFI DMSO (hPDE5 mutants [1])	GFP FACS analysis (MFI) (hPDE5 mutants [1]; SDF 3.704 μM)	GFP FACS analysis (MFI) (hPDE5 mutants [1]; SDF 11.111 μM)	GFP FACS analysis (MFI) (hPDE5 mutants [1]; SDF 33.333 μM)	GFP FACS analysis (MFI) (hPDE5 mutants [1]; SDF 100 μM)	GFP FACS analysis (MFI) (hPDE5 mutants [1]; TDF 3.704 μM)	GFP FACS analysis (MFI) (hPDE5 mutants [1]; TDF 11.111 μM)	GFP FACS analysis (MFI) (hPDE5 mutants [1]; TDF 33.333 μM)	GFP FACS analysis (MFI) (hPDE5 mutants [1]; TDF 100 μM)	GFP FACS analysis (MFI) (hPDE5 mutants [1]; VDF 1.235 μM)	GFP FACS analysis (MFI) (hPDE5 mutants [1]; VDF 3.704 μM)	GFP FACS analysis (MFI) (hPDE5 mutants [1]; VDF 11.111 μM)	GFP FACS analysis (MFI) (hPDE5 mutants [1]; VDF 33.333 μM)	GFP FACS analysis (MFI) (hPDE5 mutants [1]; VDF 100 μM)	GFP FACS analysis (MFI) (hPDE5 mutants [2]; DMSO (no ligand), SDF series)	GFP FACS analysis (MFI) (hPDE5 mutants [2]; DMSO (no ligand), TDF series)	GFP FACS analysis (MFI) (hPDE5 mutants [2]; DMSO (no ligand), VDF series)	GFP FACS analysis (MFI) (hPDE5 mutants [2]; SDF 1.235 μM)	Percent stabilization effect (hPDE5 mutants [2]; SDF 1.235 μM)	other results
LibC000015: hPDE5 (Amino acid 535-860 of WT, T571S, V585M, T723S), DD generated by random mutagenesis	1951	174	331	357	432	630	326	374	463	518	756	1383	2315	3166	3069	301	306	373	320	5.8%	Percent stabilization effect (hPDE5 mutants [2]; SDF 3.704 μM): 9.1%; Percent stabilization effect (hPDE5 mutants [2]; SDF 11.111 μM): 17.0%; Percent stabilization effect (hPDE5 mutants [2]; SDF 33.333 μM): 39.8%; Percent stabilization effect (hPDE5 mutants [2]; SDF 100 μM (set as 100%)): 100.0%; GFP FACS analysis (MFI) (hPDE5 mutants [2]; TDF 1.235 μM): 311; Percent stabilization effect (hPDE5 mutants [2]; TDF 1.235 μM): 2.4%; Percent stabilization effect (hPDE5 mutants [2]; TDF 3.704 μM): 9.4%; Percent stabilization effect (hPDE5 mutants [2]; TDF 11.111 μM): 32.1%; Percent stabilization effect (hPDE5 mutants [2]; TDF 33.333 μM): 74.1%; Percent stabilization effect (hPDE5 mutants [2]; TDF 100 μM (set as 100%)): 100.0%; Percent stabilization effect (hPDE5 mutants [2]; VDF 1.235 μM): 14.2%; Percent stabilization effect (hPDE5 mutants [2]; VDF 3.704 μM): 37.5%; Percent stabilization effect (hPDE5 mutants [2]; VDF 11.111 μM): 72.0%; Percent stabilization effect (hPDE5 mutants [2]; VDF 33.333 μM): 103.6%; Percent stabilization effect (hPDE5 mutants [2]; VDF 100 μM (set as 100%)): 100.0%
LibC000020: hPDE5 (Amino acid 535-860 of WT, A722V, F755L, M760I), DD generated by random mutagenesis	1459	332	376	373	407	513	342	371	440	509	399	733	1395	2144	2499	338	243	238	371	18.9%	Fluorescence intensity Sildenafil (hPDE5 mutants [1]; median GFP fluorescence by FACS, 10 μM Sildenafil, direct comparison of clones): 513; Fluorescence intensity Tadalafil (hPDE5 mutants [1]; median GFP fluorescence by FACS, 10 μM Tadalafil, direct comparison of clones): 509; Fluorescence intensity Vardenafil (hPDE5 mutants [1]; median GFP fluorescence by FACS, 10 μM Vardenafil, direct comparison of clones): 2499; Fluorescence intensity DMSO (hPDE5 mutants [1]; median GFP fluorescence by FACS, vehicle DMSO (no ligand), direct comparison of clones): 273; Percent stabilization effect (hPDE5 mutants [2]; SDF 3.704 μM): 21.7%; Percent stabilization effect (hPDE5 mutants [2]; SDF 11.111 μM): 20.0%; Percent stabilization effect (hPDE5 mutants [2]; SDF 33.333 μM): 39.4%; Percent stabilization effect (hPDE5 mutants [2]; SDF 100 μM (set as 100%)): 100.0%; GFP FACS analysis (MFI) (hPDE5 mutants [2]; TDF 1.235 μM): 337; Percent stabilization effect (hPDE5 mutants [2]; TDF 1.235 μM): 35.3%; Percent stabilization effect (hPDE5 mutants [2]; TDF 3.704 μM): 37.2%; Percent stabilization effect (hPDE5 mutants [2]; TDF 11.111 μM): 48.1%; Percent stabilization effect (hPDE5 mutants [2]; TDF 33.333 μM): 74.1%; Percent stabilization effect (hPDE5 mutants [2]; TDF 100 μM (set as 100%)): 100.0%; Percent stabilization effect (hPDE5 mutants [2]; VDF 1.235 μM): 7.1%; Percent stabilization effect (hPDE5 mutants [2]; VDF 3.704 μM): 21.9%; Percent stabilization effect (hPDE5 mutants [2]; VDF 11.111 μM): 51.2%; Percent stabilization effect (hPDE5 mutants [2]; VDF 33.333 μM): 84.3%; Percent stabilization effect (hPDE5 mutants [2]; VDF 100 μM (set as 100%)): 100.0%

Source: patent publication US20220403001A1, “PDE5 DERIVED REGULATORY CONSTRUCTS AND METHODS OF USE IN IMMUNOTHERAPY” (Obsidian Therapeutics, Inc., priority 2018, published 2022)
